Reference: PMC8571487 (Biochemistry and Biophysics Reports, 2021)

Target: T1, NcFADS (Neurospora crassa, UniProt Q7SCU7)
T1 sequence (Q7SCU7 49-318): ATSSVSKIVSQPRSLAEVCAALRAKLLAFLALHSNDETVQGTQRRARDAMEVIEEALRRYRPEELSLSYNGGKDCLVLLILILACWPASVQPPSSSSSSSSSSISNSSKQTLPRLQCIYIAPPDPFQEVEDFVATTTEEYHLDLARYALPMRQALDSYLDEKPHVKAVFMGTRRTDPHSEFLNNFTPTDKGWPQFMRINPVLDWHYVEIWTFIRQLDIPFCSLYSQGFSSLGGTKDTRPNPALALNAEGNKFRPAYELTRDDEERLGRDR
Experiment: isothermal titration calorimetry
Assay type: binding

Kd [µM]	Compound
20.8	Cc1cc2nc3c(=O)[nH]c(=O)nc-3n(C[C@H](O)[C@H](O)[C@H](O)COP(=O)(O)O)c2cc1C [FMN]
16.6	Nc1ncnc2c1ncn2[C@@H]1O[C@H](COP(=O)(O)OP(=O)(O)OP(=O)(O)O)[C@@H](O)[C@H]1O [MgATP^2−]
